Measured values: patent US20250127937A1, “FAP INHIBITOR” (UNIVERSITÄT HEIDELBERG, priority 2018, published 2025)

Tests used:
[1] = test system: Capan-2 tumor xenografts; test: Organ distribution ex vivo in Capan-2 tumor bearing nude mice; set-up: species or system mouse; settings: Lu-177 labeled, 1 h after i.v., Capan-2, mean ± SD, n = 3
Protocol: (§1) For in vivo experiments, 8 week old BALB/c nu/nu mice (Charles River) were subcutaneously inoculated into the right trunk with 5×10^6 with HT-1080-FAP, Capan-2 or SK-LMS-1 cells, respectively. When the size of the tumor reached approximately 1 cm^3, the radiolabeled compound was injected via the tail vein (˜10 MBq for small-animal PET imaging; ˜1 MBq for organ distribution). PET imaging was performed up to 140 min after intravenous injection of 1 MBq of Ga-68 labeled compound per mouse using the Inveon PET small-animal PET scanner (Siemens). Images were reconstructed iteratively using the 3D-OSEM+MAP method and were converted to standardized uptake value (SUV) images. Quantification was done using a ROI technique and expressed as SUV mean. For organ distribution of Lu-177 labeled compound (approx. […] per mouse), the animals (n=3 for each time point) were sacrificed after indicated time points (from 30 min to 24 h). The distributed radioactivity was measured in all dissected organs and in blood using a γ-counter (Cobra Autogamma, Packard). The values are expressed as percentage of injected dose per gram of tissue (% ID/g).

[2] = test system: Capan-2 tumor xenografts; test: Dynamic small-animal PET, two-tissue compartment model, Capan-2 xenografts; type: in vivo, mouse; settings: 68Ga-FAPI-02, Capan-2, − comp.
Protocol: as §1
For pharmakokinetic modeling the transport constant K1 and the rate constants k2-k4 were calculated using a two-tissue compartment model implemented in the PMOD software, taking into account the vascular fraction (vB), which is associated with the volume of blood exchanging with tissue in a VOI. The rate constants that describe the compartmental fluxes include k1 (binding to the receptor), k2 (detachment) as well as k3 (internalization) and k4 (efflux) in the tumor tissue. In this model the fractional volume of distribution (DV=K1/k2) is the proportion of the region of interest in which […] is distributed.

[3] = molecular target: human CD26 (Homo sapiens (Human), UniProt P27487); test: Radioligand binding to CD26 expressing cells (HEK-CD26); settings: 60 min incubation
Protocol: In vitro binding studies were performed using the human tumor cell lines BxPC3, Capan-2, MCF-7 (purchased from Sigma Aldrich Chemie GmbH) and SK-LMS-1 (purchased from ATCC) as well as stably transfected FAP-cell lines HT-1080-FAP, HEK-muFAP and the CD26 expressing cell line HEK-CD26 (obtained from Stefan Bauer, NCT Heidelberg). All cells were cultivated in Dulbecco's modified Eagle's medium (DMEM) containing 10% fetal calf serum at 37° C./5% carbon dioxide. For fluorescence internalization experiments, cells were seeded on coverslips and stained with FAPI-02-Atto488 and DAPI for cell nucleus staining. Images were acquired on a laser scanning confocal microscope using a 63× oil immersion objective.
For radioligand binding studies, cells were seeded in 6-well plates and cultivated for 48 h to a final confluence of approx. 80-90% (1.2-2 mio cells/well). The medium was replaced by 1 mL fresh medium without fetal calf serum. The radiolabeled compound was added to the cell culture and incubated for different time intervals ranging from 10 min to 24 h. Competition experiments were performed by simultaneous exposure to unlabeled (10^−5 M to 10^−9 M) and radiolabeled compound for 60 min. […] Radioactivity was determined in a γ-counter (Cobra II, Packard), normalized to 1 mio cells and calculated as percentage of the applied dose (% ID). […]

[4] = test system: tumor lesions and normal tissue of cancer patients; test: Clinical PET/CT imaging in cancer patients (SUV); type: in vivo, human
Protocol: Diagnostic imaging of more than 100 patients was performed under the conditions of the updated declaration of Helsinki, § 37 (Unproven interventions in clinical practice) and in accordance to the German Pharmaceuticals Law § 13 (2b) for medical reasons using either ^68Ga-FAPI-02 or -04, which was applied intravenously (20 nmol, 122-336 MBq), 10 min, 1 and 3 hours post tracer administration. Variation of injected radiotracer activity is due to the short half-life of ^68Ga and the variable elution efficiencies obtained during the lifetime of the ^68Ge/^68Ga generator. […] The PET/CT scans were performed with a Biograph mCT Flow™ PET/CT-Scanner (Siemens Medical Solution) using the following parameters: slice thickness of 5 mm, increment of 3-4 mm, soft-tissue reconstruction kernel, care dose. Immediately after CT scanning, a whole-body PET was acquired in 3D (matrix 200×200) in FlowMotion™ with 0.7 cm/min. The emission data were corrected for random, scatter and decay. Reconstruction was conducted with an ordered subset expectation maximisation (OSEM) algorithm with 2 iterations/21 subsets and Gauss-filtered to a transaxial resolution of 5 mm at full-width half-maximum (FWHM). Attenuation correction was performed using the low-dose non-enhanced CT data. The quantitative assessment of standardized uptake values (SUV) was done using a region of interest technique.
For the normal tissue of 16 organs, a 2 cm Spheric-VOI was placed in the parenchyma, for tumor lesions a threshold segmented VOI was used to quantify SUVmean/max^3.

[5] = Preliminary dosimetry estimate in patients; type: in vivo, human
[6] = 1 h p.i., intra-individual comparison of 6 patients

human CD26, sequence (P27487 whole entry): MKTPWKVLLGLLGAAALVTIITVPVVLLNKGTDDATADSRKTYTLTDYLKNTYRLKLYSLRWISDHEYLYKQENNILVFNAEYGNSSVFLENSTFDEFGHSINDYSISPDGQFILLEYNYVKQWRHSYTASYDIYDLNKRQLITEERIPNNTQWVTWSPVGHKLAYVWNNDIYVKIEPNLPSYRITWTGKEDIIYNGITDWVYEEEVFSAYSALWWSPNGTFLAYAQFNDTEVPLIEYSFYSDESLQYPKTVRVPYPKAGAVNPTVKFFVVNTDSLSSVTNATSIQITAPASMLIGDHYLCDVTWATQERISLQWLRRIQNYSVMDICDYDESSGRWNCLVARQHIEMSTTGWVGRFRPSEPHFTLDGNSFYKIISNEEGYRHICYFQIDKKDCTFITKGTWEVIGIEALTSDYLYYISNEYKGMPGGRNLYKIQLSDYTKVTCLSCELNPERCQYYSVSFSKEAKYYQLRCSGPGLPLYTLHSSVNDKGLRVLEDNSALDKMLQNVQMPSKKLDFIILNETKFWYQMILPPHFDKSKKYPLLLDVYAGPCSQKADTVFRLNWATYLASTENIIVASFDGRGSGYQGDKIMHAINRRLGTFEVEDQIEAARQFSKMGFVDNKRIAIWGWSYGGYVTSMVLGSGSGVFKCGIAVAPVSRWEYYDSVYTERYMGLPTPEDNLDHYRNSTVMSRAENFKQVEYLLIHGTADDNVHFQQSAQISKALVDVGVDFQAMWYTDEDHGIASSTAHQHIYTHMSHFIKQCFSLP

Blood uptake [1]: 0.83 ± 0.127 % ID/g | Brain uptake [1]: 0.05 ± 0.010 % ID/g | Heart uptake [1]: 0.37 ± 0.031 % ID/g | Intestines uptake [1]: 0.30 ± 0.064 % ID/g | Kidneys uptake [1]: 1.45 ± 0.106 % ID/g | Liver uptake [1]: 0.36 ± 0.015 % ID/g | Lungs uptake [1]: 0.72 ± 0.021 % ID/g | Muscle uptake [1]: 0.94 ± 0.168 % ID/g | Spleen uptake [1]: 0.25 ± 0.015 % ID/g | Tumor uptake [1]: 3.82 ± 0.390 % ID/g | Flux [2]: 0.03 ml/ccm/min | Vs (ratio of specific binding concentration to total parent at equilibrium) [2]: 0.93 ml/ccm | Vt (total distribution volume) [2]: 1.44 ml/ccm | k1 [2]: 0.08 ml/ccm/min | k2 [2]: 0.16 min⁻¹ | k3 [2]: 0.08 min⁻¹ | k4 [2]: 0.05 min⁻¹ | vB (vascular fraction) [2]: 0.08 l/l | binding to CD26 expressing cells (% ID) [3]: 0.13±0.01% | background uptake in brain [4, 6]: 0.32 | background uptake in liver [4, 6]: 1.69 | background uptake in oral/pharyngeal mucosa [4, 6]: 2.57 | decrease of tumor uptake (washout) ([4]; from 1 h to 3 h p.i., patients): 75% | equivalent dose of an exam ([5]; 200 MBq Ga-68): 3-4 mSv | effective dose ([5]; calculated with IDAC1/ICRP60): 1.82E-02 mSv/MBq | effective dose ([5]; calculated with IDAC2/ICRP103): 1.79E-02 mSv/MBq | effective dose ([5]; calculated with OLINDA): 1.80E-02 mSv/MBq
Structure (SMILES): N#C[C@@H]1CCCN1C(=O)CNC(=O)c1ccnc2ccc(OCCCN3CCN(C(=O)CN4CCN(CC(=O)O)CCN(CC(=O)O)CCN(CC(=O)O)CC4)CC3)cc12 [FAPI-02]
maximum SUV values in primary tumor, lymph node and bone metastases ([4]; 68Ga labeled, 1 h after i.v. administration, patients): ≤ 48.0 | tumor uptake, average SUV max [4, 6]: 7.37
